Test results published in US12268674B2, “Mi-2β inhibitor as an immunotherapy agent” (BioVentures, LLC, priority 2021, dated 2025).

Tests used:
Experiment in all cases: ATPase profile (ATP acyl phosphate probe)
Assay type in all cases: binding
NVL = target: T1, NVL (Homo sapiens, UniProt O15381)
T1 construct: to get the native cell lysate; endogenous in cells; host or cells: A375

ABCC2 = target: T2, ABCC2 (Homo sapiens, UniProt Q92887); settings: ABCC2, SEQ ID NO: 8, ATP BS
T2 construct: to get the native cell lysate; host or cells: A375 cell lysate

HARS = target: T3, HARS (Homo sapiens, UniProt P12081); settings: SEQ ID NO: 89, ATP BS
T3 construct: endogenous in cells; host or cells: A375 cell lysate

PFAS = target: T4, PFAS (Homo sapiens, UniProt O15067); settings: SEQ ID NO: 157, ATP BS
T4 construct: to get the native cell lysate; endogenous in cells; host or cells: A375 cell lysate

PCCA = target: T5, PCCA (Homo sapiens, UniProt P05165)
T5 construct: to get the native cell lysate; endogenous in cells; host or cells: A375

ATAD1 = target: T6, ATAD1 (Homo sapiens, UniProt Q8NBU5); settings: ATAD1, SEQ ID NO: 44, ATP BS
T6 construct: to get the native cell lysate; host or cells: A375 cell lysate

DHX15 = target: T7, DHX15 (Homo sapiens, UniProt O43143); settings: DHX15, SEQ ID NO: 72, ATP BS
T7 construct: endogenous in cells; host or cells: A375 cell lysate

UBA3 = target: T8, UBA3 (Homo sapiens, UniProt Q8TBC4); settings: UBA3, SEQ ID NO: 220, ATP BS
T8 construct: to get the native cell lysate; endogenous in cells; host or cells: A375 cell lysate

ABCC10 = target: T9, ABCC10 (Homo sapiens, UniProt Q5T3U5); settings: ABCC10, SEQ ID NO: 7, ATP BS
T9 construct: to get the native cell lysate; host or cells: A375 cell lysate

ABCC3 = target: T10, ABCC3 (Homo sapiens, UniProt O15438)
T10 construct: host or cells: A375 cell lysate

PRKAG1, PRKAG2 = settings: PRKAG1, PRKAG2, SEQ ID NO: 169, ATP BS
FDPS = target: T11, FDPS (Homo sapiens, UniProt P14324); settings: SEQ ID NO: 78, ATP BS
T11 construct: endogenous in cells; host or cells: A375 cell lysate

ALDH16A1 = target: T12, ALDH16A1 (Homo sapiens, UniProt Q8IZ83); settings: ALDH16A1, SEQ ID NO: 38, ATP BS
T12 construct: to get the native cell lysate; host or cells: A375 cell lysate

MVK = target: T13, MVK (Homo sapiens, UniProt Q03426); settings: SEQ ID NO: 127, ATP BS
T13 construct: to get the native cell lysate; endogenous in cells; host or cells: A375

CCT4 = target: T14, CCT4 (Homo sapiens, UniProt P50991); settings: CCT4, SEQ ID NO: 53, ATP BS
T14 construct: to get the native cell lysate; host or cells: A375 cell lysate

ABCF1 = target: T15, ABCF1 (Homo sapiens, UniProt Q8NE71); settings: ABCF1, SEQ ID NO: 16, ATP BS
T15 construct: to get the native cell lysate; host or cells: A375 cell lysate

PSMC1 = target: T16, PSMC1 (Homo sapiens, UniProt P62191); settings: PSMC1, SEQ ID NO: 173, ATP BS
T16 construct: endogenous in cells; host or cells: A375 cell lysate

HNRNPU = target: T17, HNRNPU (Homo sapiens, UniProt Q00839); settings: SEQ ID NO: 92, ATP BS
T17 construct: endogenous in cells; host or cells: A375

ABCC4 = target: T18, ABCC4 (Homo sapiens, UniProt O15439)
T18 construct: to get the native cell lysate; host or cells: A375 cell lysate

TOR1B = target: T19, TOR1B (Homo sapiens, UniProt O14657); settings: SEQ ID NO: 204, ATP BS
T19 construct: to get the native cell lysate; endogenous in cells; host or cells: A375 cell lysate

MYO1E = target: T20, MYO1E (Homo sapiens, UniProt Q12965); settings: SEQ ID NO: 128, ATP BS
T20 construct: to get the native cell lysate; endogenous in cells; host or cells: A375

TOR4A = target: T21, TOR4A (Homo sapiens, UniProt Q9NXH8); settings: SEQ ID NO: 207, ATP BS
T21 construct: to get the native cell lysate; endogenous in cells; host or cells: A375 cell lysate

UPF1 = target: T22, UPF1 (Homo sapiens, UniProt Q92900)
T22 construct: to get the native cell lysate; endogenous in cells; host or cells: A375 cell lysate

UBA1 = UBA1 (Homo sapiens, UniProt P22314); settings: UBA1, SEQ ID NO: 217, ATP BS
CCT5 = target: T23, CCT5 (Homo sapiens, UniProt P48643); settings: CCT5, SEQ ID NO: 54, ATP BS
T23 construct: to get the native cell lysate; host or cells: A375 cell lysate

AHCY = target: T24, AHCY (Homo sapiens, UniProt P23526); settings: SEQ ID NO: 30, ATP BS
T24 construct: to get the native cell lysate; host or cells: A375 cell lysate

PRKAG2 = PRKAG2 (Homo sapiens, UniProt Q9UGJ0); settings: PRKAG2, SEQ ID NO: 170, ATP BS
ACTR2 = target: T25, ACTR2 (Homo sapiens, UniProt P61160)
T25 construct: to get the native cell lysate; host or cells: A375 cell lysate

NOP2 = target: T26, NOP2 (Homo sapiens, UniProt P46087); settings: NOP2, SEQ ID NO: 136, ATP BS
T26 construct: to get the native cell lysate; endogenous in cells; host or cells: A375

TTLL12 = target: T27, TTLL12 (Homo sapiens, UniProt Q14166)
T27 construct: to get the native cell lysate; endogenous in cells; host or cells: A375 cell lysate
T27 sequence (Q14166 whole entry): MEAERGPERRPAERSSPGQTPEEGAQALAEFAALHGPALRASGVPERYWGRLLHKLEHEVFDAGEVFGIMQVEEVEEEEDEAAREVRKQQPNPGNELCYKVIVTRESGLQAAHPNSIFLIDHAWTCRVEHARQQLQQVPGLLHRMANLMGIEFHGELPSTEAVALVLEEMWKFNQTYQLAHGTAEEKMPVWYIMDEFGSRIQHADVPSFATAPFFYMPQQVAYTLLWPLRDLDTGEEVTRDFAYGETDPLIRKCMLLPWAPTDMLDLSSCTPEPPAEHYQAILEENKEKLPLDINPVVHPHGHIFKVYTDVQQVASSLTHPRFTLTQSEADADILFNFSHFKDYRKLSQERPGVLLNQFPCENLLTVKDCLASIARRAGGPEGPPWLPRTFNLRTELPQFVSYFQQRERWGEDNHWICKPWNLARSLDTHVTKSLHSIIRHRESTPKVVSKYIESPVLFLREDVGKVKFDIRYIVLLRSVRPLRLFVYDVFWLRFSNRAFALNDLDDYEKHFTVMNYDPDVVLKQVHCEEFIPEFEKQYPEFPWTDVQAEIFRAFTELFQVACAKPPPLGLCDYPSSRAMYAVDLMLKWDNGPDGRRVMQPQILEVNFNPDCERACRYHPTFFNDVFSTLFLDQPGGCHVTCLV

T5 sequence (P05165 53-728): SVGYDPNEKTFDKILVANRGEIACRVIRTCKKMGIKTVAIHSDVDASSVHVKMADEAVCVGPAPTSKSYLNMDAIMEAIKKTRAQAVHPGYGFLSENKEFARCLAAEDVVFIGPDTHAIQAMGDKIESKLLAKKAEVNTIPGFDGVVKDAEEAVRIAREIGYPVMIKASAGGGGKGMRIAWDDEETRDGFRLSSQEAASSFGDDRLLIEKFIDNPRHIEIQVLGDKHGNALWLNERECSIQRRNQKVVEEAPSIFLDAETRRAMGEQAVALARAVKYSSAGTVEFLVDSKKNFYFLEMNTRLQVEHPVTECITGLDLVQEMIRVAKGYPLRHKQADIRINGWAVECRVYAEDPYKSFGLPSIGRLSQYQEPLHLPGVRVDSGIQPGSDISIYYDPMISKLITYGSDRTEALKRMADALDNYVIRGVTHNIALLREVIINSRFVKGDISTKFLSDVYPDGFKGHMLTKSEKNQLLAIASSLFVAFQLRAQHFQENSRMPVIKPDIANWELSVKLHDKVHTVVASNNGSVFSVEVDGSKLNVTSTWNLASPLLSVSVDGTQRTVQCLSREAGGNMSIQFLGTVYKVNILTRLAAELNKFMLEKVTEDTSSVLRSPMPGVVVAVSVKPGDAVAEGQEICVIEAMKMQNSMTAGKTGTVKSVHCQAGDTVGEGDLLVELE
T5 sequence (P05166 29-539 partner): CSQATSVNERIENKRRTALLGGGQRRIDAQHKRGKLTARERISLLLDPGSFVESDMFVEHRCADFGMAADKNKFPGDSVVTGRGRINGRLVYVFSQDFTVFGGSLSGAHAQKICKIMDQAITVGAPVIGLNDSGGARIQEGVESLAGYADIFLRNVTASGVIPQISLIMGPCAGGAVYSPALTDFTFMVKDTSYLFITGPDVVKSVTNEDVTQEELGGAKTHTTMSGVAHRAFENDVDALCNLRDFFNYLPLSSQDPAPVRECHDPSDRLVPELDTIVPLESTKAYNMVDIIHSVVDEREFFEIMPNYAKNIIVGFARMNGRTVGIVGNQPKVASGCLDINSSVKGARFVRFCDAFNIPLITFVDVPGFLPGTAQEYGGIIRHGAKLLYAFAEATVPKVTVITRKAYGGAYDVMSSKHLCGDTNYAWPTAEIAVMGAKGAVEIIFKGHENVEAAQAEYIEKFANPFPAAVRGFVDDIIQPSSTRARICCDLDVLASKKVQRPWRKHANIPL
T22 sequence (Q92900 whole entry): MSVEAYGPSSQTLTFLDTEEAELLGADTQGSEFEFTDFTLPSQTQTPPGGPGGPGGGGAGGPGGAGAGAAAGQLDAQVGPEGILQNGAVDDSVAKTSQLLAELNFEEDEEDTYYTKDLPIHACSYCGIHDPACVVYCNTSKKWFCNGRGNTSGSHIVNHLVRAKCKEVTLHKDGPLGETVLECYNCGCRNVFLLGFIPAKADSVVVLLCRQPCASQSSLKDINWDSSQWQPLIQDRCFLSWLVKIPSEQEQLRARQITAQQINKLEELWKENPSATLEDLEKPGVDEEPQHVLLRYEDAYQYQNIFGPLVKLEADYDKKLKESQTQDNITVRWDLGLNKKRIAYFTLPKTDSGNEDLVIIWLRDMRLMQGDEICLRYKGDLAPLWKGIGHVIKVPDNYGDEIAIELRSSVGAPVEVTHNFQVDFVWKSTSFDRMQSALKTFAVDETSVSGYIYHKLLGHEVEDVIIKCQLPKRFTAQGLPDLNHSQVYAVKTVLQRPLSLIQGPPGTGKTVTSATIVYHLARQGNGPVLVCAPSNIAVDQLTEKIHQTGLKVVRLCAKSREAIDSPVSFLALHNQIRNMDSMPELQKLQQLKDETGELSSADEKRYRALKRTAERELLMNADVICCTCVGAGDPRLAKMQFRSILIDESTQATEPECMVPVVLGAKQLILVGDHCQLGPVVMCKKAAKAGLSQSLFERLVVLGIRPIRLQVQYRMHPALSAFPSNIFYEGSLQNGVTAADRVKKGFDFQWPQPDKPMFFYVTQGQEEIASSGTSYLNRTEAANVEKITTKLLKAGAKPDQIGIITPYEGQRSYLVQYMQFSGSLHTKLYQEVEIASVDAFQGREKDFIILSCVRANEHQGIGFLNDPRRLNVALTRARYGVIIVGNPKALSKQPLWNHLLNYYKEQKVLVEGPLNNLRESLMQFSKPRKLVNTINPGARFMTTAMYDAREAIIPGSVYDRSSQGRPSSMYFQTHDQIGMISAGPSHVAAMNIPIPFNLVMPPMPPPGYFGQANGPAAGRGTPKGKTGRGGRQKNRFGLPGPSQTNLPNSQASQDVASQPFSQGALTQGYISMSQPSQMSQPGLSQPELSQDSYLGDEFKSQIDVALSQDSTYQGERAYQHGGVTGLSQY
T18 sequence (O15439 whole entry): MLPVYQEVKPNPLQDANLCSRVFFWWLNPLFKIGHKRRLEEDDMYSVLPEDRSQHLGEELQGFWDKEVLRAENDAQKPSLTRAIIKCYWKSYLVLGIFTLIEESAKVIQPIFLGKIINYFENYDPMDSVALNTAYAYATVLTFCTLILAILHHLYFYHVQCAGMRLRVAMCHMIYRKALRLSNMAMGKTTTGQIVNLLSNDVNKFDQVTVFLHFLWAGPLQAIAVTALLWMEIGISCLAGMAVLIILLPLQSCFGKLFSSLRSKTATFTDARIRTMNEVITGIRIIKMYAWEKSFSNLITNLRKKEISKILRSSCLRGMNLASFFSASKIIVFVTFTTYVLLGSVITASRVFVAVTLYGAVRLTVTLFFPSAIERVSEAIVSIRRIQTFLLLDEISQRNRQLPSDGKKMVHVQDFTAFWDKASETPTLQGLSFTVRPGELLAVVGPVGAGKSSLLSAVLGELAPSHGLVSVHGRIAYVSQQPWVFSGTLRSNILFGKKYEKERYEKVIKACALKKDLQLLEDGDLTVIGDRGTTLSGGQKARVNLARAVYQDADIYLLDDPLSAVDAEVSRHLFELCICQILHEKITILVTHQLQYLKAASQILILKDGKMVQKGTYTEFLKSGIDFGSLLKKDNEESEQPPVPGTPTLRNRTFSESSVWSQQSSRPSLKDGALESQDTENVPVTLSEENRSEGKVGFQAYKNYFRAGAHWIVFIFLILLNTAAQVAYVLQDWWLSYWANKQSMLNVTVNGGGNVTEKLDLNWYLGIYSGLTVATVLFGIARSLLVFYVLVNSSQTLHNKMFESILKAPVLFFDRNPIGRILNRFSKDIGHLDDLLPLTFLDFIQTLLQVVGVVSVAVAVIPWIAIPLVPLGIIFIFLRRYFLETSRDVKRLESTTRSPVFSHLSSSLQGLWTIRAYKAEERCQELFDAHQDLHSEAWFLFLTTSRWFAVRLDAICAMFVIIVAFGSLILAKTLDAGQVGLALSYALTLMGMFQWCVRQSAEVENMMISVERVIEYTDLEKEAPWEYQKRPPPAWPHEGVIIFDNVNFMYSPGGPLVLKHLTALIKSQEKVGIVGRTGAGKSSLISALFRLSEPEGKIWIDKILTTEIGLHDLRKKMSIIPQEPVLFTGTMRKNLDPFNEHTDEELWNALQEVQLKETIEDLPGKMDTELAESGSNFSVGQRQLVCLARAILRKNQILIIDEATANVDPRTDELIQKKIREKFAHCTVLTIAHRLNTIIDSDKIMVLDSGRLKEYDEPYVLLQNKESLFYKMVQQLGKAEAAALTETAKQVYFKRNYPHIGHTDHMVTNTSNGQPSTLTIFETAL
T13 sequence (Q03426 whole entry): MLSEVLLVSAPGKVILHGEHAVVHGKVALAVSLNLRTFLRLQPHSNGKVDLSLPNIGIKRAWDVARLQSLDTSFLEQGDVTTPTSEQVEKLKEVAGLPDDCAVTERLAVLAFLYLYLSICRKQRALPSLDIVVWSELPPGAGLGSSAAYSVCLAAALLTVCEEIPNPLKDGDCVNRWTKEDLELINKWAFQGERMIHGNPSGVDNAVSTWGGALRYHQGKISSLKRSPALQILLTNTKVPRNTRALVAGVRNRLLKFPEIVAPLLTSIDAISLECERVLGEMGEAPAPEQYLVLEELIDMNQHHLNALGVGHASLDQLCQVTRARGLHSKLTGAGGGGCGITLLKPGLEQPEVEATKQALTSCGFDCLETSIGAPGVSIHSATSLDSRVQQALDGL
T19 sequence (O14657 25-336): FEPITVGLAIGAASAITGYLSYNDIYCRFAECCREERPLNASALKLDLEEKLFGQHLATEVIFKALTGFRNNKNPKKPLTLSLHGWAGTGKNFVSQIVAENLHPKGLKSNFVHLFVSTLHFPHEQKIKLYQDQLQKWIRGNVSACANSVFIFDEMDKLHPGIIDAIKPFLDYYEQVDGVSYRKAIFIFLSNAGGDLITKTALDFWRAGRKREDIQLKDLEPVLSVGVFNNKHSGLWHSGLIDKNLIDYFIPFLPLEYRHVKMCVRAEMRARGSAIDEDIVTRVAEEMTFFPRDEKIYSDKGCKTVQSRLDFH

Structure (SMILES): Cn1c(=O)[nH]c2ccc(-c3cccc(C(=O)NC4CCn5ccnc5C4)c3)cc21 (stereo not shown) [Z36-MP5, 3-(3-methyl-2-oxo-2,3-dihydro-1H-benzo[d]imidazol-5-yl)-N-(5,6,7,8-tetrahydroimidazo[1,2-a]pyridin-7-yl)benzamide]
- Inhibition (%) by 1 μM Z36-MP5 (NVL; SEQ ID NO: 148, ATP BS): −1.13%
- Inhibition (%) by 1 μM Z36-MP5 (NVL; SEQ ID NO: 149, ATP BS): −8.26%
- Inhibition (%) by 1 μM Z36-MP5 (ABCC2): 4.09%
- Inhibition (%) by 1 μM Z36-MP5 (HARS): 4.68%
- Inhibition (%) by 1 μM Z36-MP5 (PFAS): −4.58%
- Inhibition (%) by 1 μM Z36-MP5 (PCCA; SEQ ID NO: 153, ATP BS): −5.50%
- Inhibition (%) by 1 μM Z36-MP5 (PCCA; SEQ ID NO: 154, ATP BS): −10.70%
- Inhibition (%) by 1 μM Z36-MP5 (ATAD1): 15.67%
- Inhibition (%) by 1 μM Z36-MP5 (DHX15): −5.22%
- Inhibition (%) by 1 μM Z36-MP5 (UBA3): −11.62%
- Inhibition (%) by 1 μM Z36-MP5 (ABCC10): −3.83%
- Inhibition (%) by 1 μM Z36-MP5 (ABCC3; ABCC3, SEQ ID NO: 9, ATP BS): 4.57%
- Inhibition (%) by 1 μM Z36-MP5 (ABCC3; ABCC3, SEQ ID NO: 10, ATP BS): 9.43%
- Inhibition (%) by 1 μM Z36-MP5 (PRKAG1, PRKAG2): −7.97%
- Inhibition (%) by 1 μM Z36-MP5 (FDPS): 29.13%
- Inhibition (%) by 1 μM Z36-MP5 (ALDH16A1): −1.13%
- Inhibition (%) by 1 μM Z36-MP5 (MVK): 15.38%
- Inhibition (%) by 1 μM Z36-MP5 (CCT4): 11.95%
- Inhibition (%) by 1 μM Z36-MP5 (ABCF1): −8.08%
- Inhibition (%) by 1 μM Z36-MP5 (PSMC1): −7.42%
- Inhibition (%) by 1 μM Z36-MP5 (HNRNPU): 6.85%
- Inhibition (%) by 1 μM Z36-MP5 (ABCC4; ABCC4, SEQ ID NO: 11, ATP BS): 1.76%
- Inhibition (%) by 1 μM Z36-MP5 (ABCC4; ABCC4, SEQ ID NO: 12, ATP BS): 8.93%
- Inhibition (%) by 1 μM Z36-MP5 (TOR1B): 2.00%
- Inhibition (%) by 1 μM Z36-MP5 (MYO1E): 4.66%
- Inhibition (%) by 1 μM Z36-MP5 (TOR4A): 5.38%
- Inhibition (%) by 1 μM Z36-MP5 (UPF1; UPF1, SEQ ID NO: 223, ATP BS): −1.93%
- Inhibition (%) by 1 μM Z36-MP5 (UPF1; UPF1, SEQ ID NO: 224, ATP BS): −3.51%
- Inhibition (%) by 1 μM Z36-MP5 (UBA1): −4.55%
- Inhibition (%) by 1 μM Z36-MP5 (CCT5): −2.48%
- Inhibition (%) by 1 μM Z36-MP5 (AHCY): −10.85%
- Inhibition (%) by 1 μM Z36-MP5 (PRKAG2): −22.54%
- Inhibition (%) by 1 μM Z36-MP5 (ACTR2; ACTR2, SEQ ID NO: 25, ATP BS): −16.82%
- Inhibition (%) by 1 μM Z36-MP5 (ACTR2; ACTR2, SEQ ID NO: 26, ATP BS): −2.20%
- Inhibition (%) by 1 μM Z36-MP5 (NOP2): 1.98%
- Inhibition (%) by 1 μM Z36-MP5 (TTLL12; TTLL12, SEQ ID NO: 215, ATP BS): −5.29%
- Inhibition (%) by 1 μM Z36-MP5 (TTLL12; TTLL12, SEQ ID NO: 216, ATP BS): −17.65%
